# US7862842B2, “Use of cationic preservative in food products” (priority 2001, dated 2011)
# How the values were obtained:
# [1] = system: Listeria monocytogenes ATCC 7644; test: minimum inhibitory concentration of LAE; type: cell-based; details: Gram + Bacteria
# [2] = system: Chaetonium globosum ATCC 6205; test: minimum inhibitory concentration of LAE; type: cell-based; details: Fungi
# [3] = system: Proteus mirabilis CECT 170; test: minimum inhibitory concentration of LAE; type: cell-based; details: Gram − Bacteria
# [4] = system: Gliocadium virens ATCC 4645; test: minimum inhibitory concentration of LAE; type: cell-based; details: Fungi
# [5] = system: Enterobacter aerogenes CECT 689; test: minimum inhibitory concentration of LAE; type: cell-based; details: Gram − Bacteria
# [6] = system: Bordetella bronchiseptica ATCC 4617; test: minimum inhibitory concentration of LAE; type: cell-based; details: Gram − Bacteria
# [7] = system: Aerobe Bacteria; test: microbiological evolution in veal stew; type: cell-based; details: LAE 100 ppm, 10° C.
# Procedure: (§1) The determination of the microbiological population is carried out according to the ISO standards.
# (§2) The samples are treated by dilution in buffer peptone with the appropriate neutralising agent of the preservative. The culture media used for counting the microorganisms are: Soya triptone agar (32-35° C., 48 hours) for the determination of mesophilic bacteria; Sabouraud agar with chloramfenicol (25° C., 3-5 days) for fungi and yeast; Violet red bile glucose agar (32-35° C., 24 hours) for enterobacteria; Soya triptone agar (17° C., 5 days) for psychrotrophic bacteria.
# (§3) The sample LAE was added to at a concentration of 100 ppm and its microbiological evolution at 10° C. was compared against a control.
# [8] = system: Mould & yeast; test: microbiological evolution in veal stew; type: cell-based; details: LAE 100 ppm, 10° C.
# Procedure: as §1, §2, §3
# [9] = system: Enterobacteria; test: microbiological evolution in veal stew; type: cell-based; details: LAE 100 ppm, 10° C.
# Procedure: as §1, §2, §3
# [10] = toxicological studies; type: in vivo; details: animals and humans
# [11] = system: Saccharomyces cerevisiae ATCC 9763; test: minimum inhibitory concentration of LAE; type: cell-based; details: Yeast
# [12] = system: Aerobe Bacteria; test: microbiological evolution in custard; type: cell-based; details: LAE 100 ppm, 25° C.
# Procedure: as §1, §2
# (§4) The sample LAE was added to at a concentration of 100 ppm and its microbiological evolution at 25° C. was compared against a control.
# [13] = system: Anaerobe Bacteria; test: microbiological evolution in custard; type: cell-based; details: LAE 100 ppm, 25° C.
# Procedure: as §1, §2, §4
# [14] = system: Escherichia coli 0157H7; test: minimum inhibitory concentration of LAE; type: cell-based; details: Gram − Bacteria
# [15] = system: Aerobe Bacteria; test: microbiological evolution in a blackberry juice; type: cell-based; details: LAE 60 ppm, 34° C.
# Procedure: as §1, §2
# (§5) The sample LAE was added to at a concentration of 60 ppm and its microbiological evolution at 34° C. was compared against a control.
# [16] = system: Mould & yeast; test: microbiological evolution in a blackberry juice; type: cell-based; details: LAE 60 ppm, 34° C.
# Procedure: as §1, §2, §5
# [17] = system: Clostridium perfringens ATCC 77454; type: cell-based; details: Gram + Bacteria
# [18] = system: Pseudomonas aeruginosa ATCC 9027; test: minimum inhibitory concentration of LAE; type: cell-based; details: Gram − Bacteria
# [19] = system: Escherichia coli ATCC 8739; test: minimum inhibitory concentration of LAE; type: cell-based; details: Gram − Bacteria
# [20] = system: Aureobasidium pullulans ATCC 9348; test: minimum inhibitory concentration of LAE; type: cell-based; details: Fungi
# [21] = system: Rhodotorula rubra CECT 1158; test: minimum inhibitory concentration of LAE; type: cell-based; details: Yeast
# [22] = system: Aerobe Bacteria; test: microbiological evolution in a carbonated orange beverage; type: cell-based; details: LAE 100 ppm, 17° C.
# Procedure: as §1, §2
# (§6) The sample LAE was added to at a concentration of 100 ppm and its microbiological evolution at 17° C. was compared against a control.
# [23] = system: Mould & yeast; test: as above; type: cell-based; details: LAE 100 ppm, 17° C.
# Procedure: as §1, §2, §6
# [24] = system: Staphylococcus aureus ATCC 6538; test: minimum inhibitory concentration of LAE; type: cell-based; details: Gram + Bacteria
# [25] = system: Aspergillus niger ATCC14604; test: minimum inhibitory concentration of LAE; type: cell-based; details: Fungi
# [26] = system: Penicillium chrysogenum CECT 2802; test: minimum inhibitory concentration of LAE; type: cell-based; details: Fungi
# [27] = system: Alcaligenes faecalis ATCC 8750; test: minimum inhibitory concentration of LAE; type: cell-based; details: Gram − Bacteria
# [28] = system: Candida albicans ATCC 10231; test: minimum inhibitory concentration of LAE; type: cell-based; details: Yeast
# [29] = system: Leuconostoc mesenteroides CETC 912; test: minimum inhibitory concentration of LAE; type: cell-based; details: Gram + Bacteria
# [30] = system: Psychro. Bacteria; test: evolution of bacteria in a chicken product; type: cell-based; details: LAE 150 ppm, 10° C.
# Procedure: as §1, §2
# (§7) The sample LAE was added to at a concentration of 150 ppm and the evolution of aerobe and psychrotrophic bacteria at 10° C. was compared against a control.
# [31] = system: Aerobe Bacteria; test: evolution of bacteria in a chicken product; type: cell-based; details: LAE 150 ppm, 10° C.
# Procedure: as §1, §2, §7
# [32] = system: Penicillium funiculosum CECT 2914; test: minimum inhibitory concentration of LAE; type: cell-based; details: Fungi
# [33] = system: Bacillus cereus var mycoide ATCC 11778; test: minimum inhibitory concentration of LAE; type: cell-based; details: Gram + Bacteria
# [34] = system: Aerobe Bacteria; test: microbiological evolution in fairy cakes; type: cell-based; details: LAE 80 ppm, 25° C.
# Procedure: as §1, §2
# (§8) The sample LAE was added to at a concentration of 80 ppm and its microbiological evolution at 25° C. was compared against a control.
# [35] = system: Mould & yeast; test: microbiological evolution in fairy cakes; type: cell-based; details: LAE 80 ppm, 25° C.
# Procedure: as §1, §2, §8
# [36] = system: Lactobacillus delbrueckii ssp lactis CECT 372; test: minimum inhibitory concentration of LAE; type: cell-based; details: Gram + Bacteria
# [37] = metabolism in rats; type: in vivo
# [38] = system: Micrococcus luteus ATCC 9631; test: minimum inhibitory concentration of LAE; type: cell-based; details: Gram + Bacteria
# [39] = system: Citrobacter freundii ATCC 22636; test: minimum inhibitory concentration of LAE; type: cell-based; details: Gram − Bacteria
# [40] = system: Aerobe Bacteria; test: microbiological evolution in ketchup; type: cell-based; details: LAE 100 ppm, 25° C.
# Procedure: as §1, §2, §4
# [41] = system: Mould & yeast; test: microbiological evolution in ketchup; type: cell-based; details: LAE 100 ppm, 25° C.
# Procedure: as §1, §2, §4
# [42] = system: Enterobacteria; test: microbiological evolution in ketchup; type: cell-based; details: LAE 100 ppm, 25° C.
# Procedure: as §1, §2, §4
# [43] = system: Bacillus subtilis ATCC 6633; test: minimum inhibitory concentration of LAE; type: cell-based; details: Gram + Bacteria
# [44] = system: Aerobe Bacteria; test: microbiological evolution in semi-preserved codfish in oil; type: cell-based; details: LAE 100 ppm, 4° C.
# Procedure: as §1, §2
# (§9) The sample LAE was added to the oil assayed at a concentration of 100 ppm and its microbiological evolution at 4° C. was compared against a control.
# [45] = system: Mould & yeast; test: as above; type: cell-based; details: LAE 100 ppm, 4° C.
# Procedure: as §1, §2, §9
# [46] = system: Klebsiella pneumoniae var pneumoniae CECT 178; test: minimum inhibitory concentration of LAE; type: cell-based; details: Gram − Bacteria
# [47] = system: Arthrobacter oxydans ATCC 8010; test: minimum inhibitory concentration of LAE; type: cell-based; details: Gram + Bacteria
# [48] = system: Mycobacterium phlei ATCC 41423; test: minimum inhibitory concentration of LAE; type: cell-based; details: listed under Gram − Bacteria
# [49] = system: Serratia marcenses CECT 274; test: minimum inhibitory concentration of LAE; type: cell-based; details: Gram − Bacteria
# [50] = system: Salmonella typhimurium ATCC 16028; test: minimum inhibitory concentration of LAE; type: cell-based; details: Gram − Bacteria
compound,measurement,setting,value
"CCCCCCCCCCCC(=O)N[C@@H](CCCN=C(N)N)C(=O)OCC.Cl [LAE, ethyl ester of the lauramide of the arginine monohydrochloride]",M.I.C.,[1],10 ppm
same,M.I.C.,[2],16 ppm
same,M.I.C.,[3],32 ppm
same,M.I.C.,[4],32 ppm
same,M.I.C.,[5],32 ppm
same,M.I.C.,[6],128 ppm
same,Aerobe Bacteria count,[7]; 0 days,<10 cfu/g
same,Aerobe Bacteria count,[7]; 14 days,<10 cfu/g
same,Mould & yeast count,[8]; 0 days,<10 cfu/g
same,Mould & yeast count,[8]; 14 days,<10 cfu/g
same,Enterobacteria count,[9]; 0 days,<10 cfu/g
same,Enterobacteria count,[9]; 14 days,<10 cfu/g
same,toxicity,[10],completely harmless to animals and humans
same,M.I.C.,[11],32 ppm
same,Aerobe Bacteria count,[12]; 0 days,<10 cfu/g
same,Aerobe Bacteria count,[12]; 5 days,1.1 · 10^3 cfu/g
same,Anaerobe Bacteria count,[13]; 0 days,<10 cfu/g
same,Anaerobe Bacteria count,[13]; 5 days,4.1 · 10^2 cfu/g
same,M.I.C.,[14],20 ppm
same,Aerobe Bacteria count,[15]; 0 days,4.0 · 10^2 cfu/g
same,Aerobe Bacteria count,[15]; 14 days,2.4 · 10^3 cfu/g
same,Mould & yeast count,[16]; 0 days,<10 cfu/g
same,Mould & yeast count,[16]; 14 days,<10 cfu/g
same,M.I.C.,[17],16 ppm
same,M.I.C.,[18],64 ppm
same,M.I.C.,[19],32 ppm
same,M.I.C.,[20],16 ppm
same,M.I.C.,[21],16 ppm
same,Aerobe Bacteria count,[22]; 0 days,4.3 · 10^2 cfu/g
same,Aerobe Bacteria count,[22]; 14 days,1.0 · 10^2 cfu/g
same,Mould & yeast count,[23]; 0 days,<10 cfu/g
same,Mould & yeast count,[23]; 14 days,<10 cfu/g
same,M.I.C.,[24],32 ppm
same,M.I.C.,[25],32 ppm
same,M.I.C.,[26],128 ppm
same,M.I.C.,[27],64 ppm
same,M.I.C.,[28],16 ppm
same,M.I.C.,[29],32 ppm
same,Psychro. Bacteria count,[30]; 0 days,3.0 · 10^4 cfu/g
same,Psychro. Bacteria count,[30]; 14 days,7.1 · 10^4 cfu/g
same,Psychro. Bacteria count,[30]; 43 days,6.8 · 10^4 cfu/g
same,Aerobe Bacteria count,[31]; 0 days,1.2 · 10^5 cfu/g
same,Aerobe Bacteria count,[31]; 14 days,4.2 · 10^5 cfu/g
same,Aerobe Bacteria count,[31]; 43 days,6.1 · 10^5 cfu/g
same,M.I.C.,[32],16 ppm
same,M.I.C.,[33],32 ppm
same,Aerobe Bacteria count,[34]; 0 months,<10 cfu/g
same,Aerobe Bacteria count,[34]; 3 months,1.1 · 10^2 cfu/g
same,Mould & yeast count,[35]; 0 months,<10 cfu/g
same,Mould & yeast count,[35]; 3 months,<10 cfu/g
same,M.I.C.,[36],16 ppm
same,absorption and metabolism,[37],fast absorption and metabolisation into naturally-occurring amino acids and the fatty acid lauric acid
same,M.I.C.,[38],128 ppm
same,M.I.C.,[39],64 ppm
same,Aerobe Bacteria count,[40]; 0 days,<10 cfu/g
same,Aerobe Bacteria count,[40]; 14 days,2.2 · 10^3 cfu/g
same,Mould & yeast count,[41]; 0 days,<10 cfu/g
same,Mould & yeast count,[41]; 14 days,1.4 · 10^1 cfu/g
same,Enterobacteria count,[42]; 0 days,<10 cfu/g
same,Enterobacteria count,[42]; 14 days,<10 cfu/g
same,M.I.C.,[43],16 ppm
same,Aerobe Bacteria count,[44]; 0 days,7.6 · 10^3 cfu/g
same,Aerobe Bacteria count,[44]; 14 days,1.0 · 10^4 cfu/g
same,Aerobe Bacteria count,[44]; 43 days,8.5 · 10^4 cfu/g
same,Mould & yeast count,[45]; 0 days,3.0 · 10^2 cfu/g
same,Mould & yeast count,[45]; 14 days,5.4 · 10^3 cfu/g
same,Mould & yeast count,[45]; 43 days,8.2 · 10^3 cfu/g
same,M.I.C.,[46],32 ppm
same,M.I.C.,[47],64 ppm
same,M.I.C.,[48],2 ppm
same,M.I.C.,[49],32 ppm
same,M.I.C.,[50],32 ppm
